This note sets out measurements from patent publication US5140018A, “1,3,2-benzodithiazole-1-oxide compounds” (Abbott Laboratories, priority 1991, dated 1992).

Holding throughout (format): cell-based
For assay [1], the system named is Torulopsis glabrata ATCC 15545. Briefly: In vitro antifungal MIC, Torulopsis glabrata ATCC 15545. The conditions noted are these: Torulopsis glabrata ATCC 15545, 35°-37° C., 48 hours. As for the experimental part: (§1) The in vitro antifungal activity of the compounds of the present invention against a variety of fungiwas determined as follow: Test medium was prepared by dissolving first 5 g of dextrose and then 6.7 g of Bacto Yeast Nitrogen Base® (commercially available from Difco Laboratories) in 100 mL of distilled water. The solution was filter-sterilized and diluted 1:10 with 0.01M pH 8.0 phosphate buffer solution, and the final pH of the medium adjusted to about pH 7.0 when necessary with either 0.1N hydrochloric acid solution of 0.1N sodium hydroxide solution. […] These concentrated stock solutions were diluted to a concentration of 200 μg/mL (twice the highest concentration desired for testing) with the test medium. Amphotericin B, similarly prepared, was used as a reference antifungal agent.
(§2) The test organisms were then inoculated into test tubes containing approximately 3 to 10 mL of test medium and the test tubes incubated overnight at 37° C. A sample of each overnight culture was placed in a test tube and diluted using the test medium until a reading of 95% transmittance was obtained in a conventional UV/visible spectrophotometer set to 560 nm. The adjusted cultures were then diluted 1:50 with test medium. These diluted cultures served as the inocula for the assays which follow and were used within 15 minutes of preparation.
(§3) Next, 2-fold serial dilutions of each test compound in test medium were prepared in a 96-well microtiter plate using calibrated microdiluters attached to an automatic (hand-held) diluter (available from Dynatech Laboratories).
(§4) Using sterile calibrated droppers or a multi-point dispenser, the diluted inoculum suspension was added to each of the wells in the plate. When inoculation was complete, the microtiter tray was covered with a plastic plate sealer to minimize evaporation. After the plate had been sealed, a hole was made above each well with a sterile 26-gauge syringe needle in order to allow gas exchange. If plate sealers were not available, the microtiter trays were stacked in groups of five or less with an empty tray on top. The microtiter trays were then incubated in a humidified chamber at 35°-37° C. for 48 hours or until growth was visible in the growth control wells.
(§5) The minimum inhibitory concentration (MIC) was defined as the lowest concentration of test compound yielding no growth, a slight haze or sparsely isolated colonies on the inoculum spot as compared to the growth control containing no test compound.

Assay [2] has as its system Candida albicans ATCC 62376. Briefly: In vitro antifungal MIC, Candida albicans ATCC 62376. To be noted: Candida albicans ATCC 62376, 35°-37° C., 48 hours. Here is the method:
as §1, §2, §3, §4, §5

Assay [3] relates to Candida tropicalis NRRL-Y-112. Briefly: In vitro antifungal MIC, Candida tropicalis NRRL-Y-112. The conditions noted are these: Candida tropicalis NRRL-Y-112, 35°-37° C., 48 hours. Here is the method:
as §1, §2, §3, §4, §5

Assay [4] concerns Aspergillus niger ATCC 16404. The assay is described as follows: In vitro antifungal MIC, Aspergillus niger ATCC 16404. The conditions noted are these: Aspergillus niger ATCC 16404, 35°-37° C., 48 hours. Here is the method: as §1, §2, §3, §4, §5
Another assay deals with Candida kefyr ATCC 28838. Briefly: In vitro antifungal MIC, Candida kefyr ATCC 28838. The conditions noted are these: Candida kefyr ATCC 28838, 35°-37° C., 48 hours. As for the experimental part: as §1, §2, §3, §4, §5
For the next assay, the system named is Candida albicans CCH 442. Briefly: In vitro antifungal MIC, Candida albicans CCH 442. The conditions noted are these: Candida albicans CCH 442, 35°-37° C., 48 hours. Here is the method:
as §1, §2, §3, §4, §5

For assay [5], the system named is Candida albicans ATCC 38247. Briefly: In vitro antifungal MIC, Candida albicans ATCC 38247. To be noted: Candida albicans ATCC 38247, 35°-37° C., 48 hours. Here is the method:
as §1, §2, §3, §4, §5

Assay [6] relates to Candida albicans ATCC 10231. Briefly: In vitro antifungal MIC, Candida albicans ATCC 10231. To be noted: Candida albicans ATCC 10231, 35°-37° C., 48 hours. Here is the method: as §1, §2, §3, §4, §5
For a further assay, the system named is Candida albicans 579A. The assay is described as follows: In vitro antifungal MIC, Candida albicans 579A. The conditions noted are these: Candida albicans 579A, 35°-37° C., 48 hours. As for the experimental part:
as §1, §2, §3, §4, §5

For assay [7], the system named is Cryptococcus albidus ATCC 34140. The assay is described as follows: In vitro antifungal MIC, Cryptococcus albidus ATCC 34140. The conditions noted are these: Cryptococcus albidus ATCC 34140, 35°-37° C., 48 hours. Here is the method:
as §1, §2, §3, §4, §5

The mark [8] stands for this setting: Nakaseomyces glabratus, ATCC15545, read-out: MIC.
Where [9] appears, read: Kluyveromyces marxianus, ATCC28838, read-out: MIC.
Where [10] appears, read: Naganishia albida, ATCC34140, read-out: MIC.

Converted amounts (≈) assume the structure as drawn. Read-outs that look alike come from different tables or passages of the source.

What is called MIC is the smallest concentration in the dilution series that meets the test's criterion for growth inhibition. `CCOC(=O)CN1Sc2ccccc2[S+]1[O-]` (stereo not drawn) [Example 21, ethyl 2-(1,3,2-benzodithiazole-2-yl-1-oxide)-acetate]: the MIC came to 3.12 µg/mL (≈ 12.1 µM) in [1]; 6.25 µg/mL (≈ 24.3 µM) in [2]; 6.25 µg/mL (≈ 24.3 µM) in [3]; 1.56 µg/mL (≈ 6.06 µM) in assay [4]; 0.78 µg/mL (≈ 3.03 µM) against Candida kefyr ATCC 28838; 6.25 µg/mL (≈ 24.3 µM) with Candida albicans CCH 442. The minimal inhibitory concentration (MIC) worked out at 6.25 µg/mL (≈ 24.3 µM) in [5], 6.25 µg/mL (≈ 24.3 µM) in assay [6], 6.25 µg/mL (≈ 24.3 µM) against Candida albicans 579A and 12.5 µg/mL (≈ 48.6 µM) in [7].

Consider `[O-][S+]1c2ccccc2SN1c1ccc2c(c1)OCO2` (stereo not drawn) [Example 31], for which the MIC in assay [1] (setting [8]) stood at 12.5 µg/mL (≈ 42.9 µM); in assay [2] (ATCC62376, read-out: MIC), 25 µg/mL (≈ 85.8 µM); in [3] (NRRLY112, read-out: MIC), 50 µg/mL (≈ 172 µM); in assay [4] (ATCC16404, read-out: MIC), 12.5 µg/mL (≈ 42.9 µM); in the assay on Candida kefyr ATCC 28838 (setting [9]), 12.5 µg/mL (≈ 42.9 µM); with Candida albicans CCH 442 (CCH442, read-out: MIC) it was 25 µg/mL (≈ 85.8 µM). Also, the MIC was determined as 25 µg/mL (≈ 85.8 µM) in assay [5] (ATCC38247, read-out: MIC); 12.5 µg/mL (≈ 42.9 µM) in [6] (ATCC10231, read-out: MIC); 25 µg/mL (≈ 85.8 µM) with Candida albicans 579A (read-out: MIC); 50 µg/mL (≈ 172 µM) in assay [7] (setting [10]).

`[O-][S+]1c2ccccc2SN1Cc1ccccc1` (stereo not drawn) [Example 35, 2-benzyl-1,3,2-benzodithiazole-1-oxide]: the MIC was 1.56 µg/mL (≈ 5.97 µM) in assay [1] (setting [8]); 0.78 µg/mL (≈ 2.98 µM) in [2] (ATCC62376, read-out: MIC); 1.56 µg/mL (≈ 5.97 µM) in assay [3] (NRRLY112, read-out: MIC); 0.39 µg/mL (≈ 1.49 µM) in assay [4] (ATCC16404, read-out: MIC); 0.39 µg/mL (≈ 1.49 µM) in the assay on Candida kefyr ATCC 28838 (setting [9]); 0.78 µg/mL (≈ 2.98 µM) in the assay on Candida albicans CCH 442 (CCH442, read-out: MIC). Also, the minimal inhibitory concentration (MIC) worked out at 6.25 µg/mL (≈ 23.9 µM) in assay [5] (ATCC38247, read-out: MIC); 0.78 µg/mL (≈ 2.98 µM) in [6] (ATCC10231, read-out: MIC); 0.78 µg/mL (≈ 2.98 µM) in the assay with Candida albicans 579A (read-out: MIC); 6.25 µg/mL (≈ 23.9 µM) in assay [7] (setting [10]).

With `CN(C)c1ccc(CN2Sc3ccccc3[S+]2[O-])cc1` (stereo not drawn) [Example 37, 2-(4-(dimethylamino)phenyl)methyl-1,3,2-benzodithiazole-1-oxide], the MIC in [1] (setting [8]) came to 6.25 µg/mL (≈ 20.5 µM); in assay [2] (ATCC62376, read-out: MIC), 6.25 µg/mL (≈ 20.5 µM); in [3] (NRRLY112, read-out: MIC) it was 6.25 µg/mL (≈ 20.5 µM); in assay [4] (ATCC16404, read-out: MIC), 3.12 µg/mL (≈ 10.2 µM); in the assay on Candida kefyr ATCC 28838 (setting [9]), 1.56 µg/mL (≈ 5.12 µM); in the assay on Candida albicans CCH 442 (CCH442, read-out: MIC) it was 6.25 µg/mL (≈ 20.5 µM). Also, the MIC in [5] (ATCC38247, read-out: MIC) came to 3.12 µg/mL (≈ 10.2 µM); in assay [6] (ATCC10231, read-out: MIC), 1.56 µg/mL (≈ 5.12 µM); in the assay on Candida albicans 579A (read-out: MIC), 3.12 µg/mL (≈ 10.2 µM); in [7] (setting [10]), 12.5 µg/mL (≈ 41.1 µM).

On to `[O-][S+]1c2ccccc2SN1CCN1CCCCC1` (stereo not drawn) [Example 24, 2-(2-(1-piperidinyl)ethyl)-1,3,2-benzodithiazole-1-oxide], for which the minimum inhibitory concentration (MIC) in assay [1] (setting [8]) was found to be 12.5 µg/mL (≈ 44.3 µM); in assay [2] (ATCC62376, read-out: MIC), 25 µg/mL (≈ 88.5 µM); in assay [3] (NRRLY112, read-out: MIC), 25 µg/mL (≈ 88.5 µM); in [4] (ATCC16404, read-out: MIC), 3.12 µg/mL (≈ 11 µM); in the assay with Candida kefyr ATCC 28838 (setting [9]), 0.78 µg/mL (≈ 2.76 µM); in the assay with Candida albicans CCH 442 (CCH442, read-out: MIC) it was 25 µg/mL (≈ 88.5 µM). Besides, the minimum inhibitory concentration (MIC) in assay [5] (ATCC38247, read-out: MIC) turned out to be 12.5 µg/mL (≈ 44.3 µM); in assay [6] (ATCC10231, read-out: MIC) it was 25 µg/mL (≈ 88.5 µM); in the assay with Candida albicans 579A (read-out: MIC), 25 µg/mL (≈ 88.5 µM); in assay [7] (setting [10]), 12.5 µg/mL (≈ 44.3 µM).

As to `CN1Sc2ccccc2[S+]1[O-]` (stereo not drawn) [Example 2, 2-methyl-1,3,2-benzodithiazole-1-oxide], the MIC in assay [1] (setting [8]) amounted to 0.78 µg/mL (≈ 4.21 µM); in assay [2] (ATCC62376, read-out: MIC), 0.78 µg/mL (≈ 4.21 µM); in assay [3] (NRRLY112, read-out: MIC), 1.56 µg/mL (≈ 8.42 µM); in assay [4] (ATCC16404, read-out: MIC), 3.12 µg/mL (≈ 16.8 µM); in the assay on Candida kefyr ATCC 28838 (setting [9]), 1.56 µg/mL (≈ 8.42 µM); in the assay on Candida albicans CCH 442 (CCH442, read-out: MIC) it was 1.56 µg/mL (≈ 8.42 µM). In addition, the minimum inhibitory concentration (MIC) in [6] (ATCC10231, read-out: MIC) turned out to be 1.56 µg/mL (≈ 8.42 µM); in the assay on Candida albicans 579A (read-out: MIC), 1.56 µg/mL (≈ 8.42 µM); in assay [7] (setting [10]), 3.12 µg/mL (≈ 16.8 µM).

Regarding `CC(C)(C)CCN1Sc2ccccc2[S+]1[O-]` (stereo not drawn) [Example 15], the MIC in assay [1] (setting [8]) was 1.56 µg/mL (≈ 6.11 µM); in assay [2] (ATCC62376, read-out: MIC) it was 1.56 µg/mL (≈ 6.11 µM); in assay [3] (NRRLY112, read-out: MIC), 3.12 µg/mL (≈ 12.2 µM); in assay [4] (ATCC16404, read-out: MIC), 1.56 µg/mL (≈ 6.11 µM); in the assay with Candida kefyr ATCC 28838 (setting [9]), 0.78 µg/mL (≈ 3.05 µM); in the assay on Candida albicans CCH 442 (CCH442, read-out: MIC), 1.56 µg/mL (≈ 6.11 µM). For the same molecule, the MIC stood at 25 µg/mL (≈ 97.9 µM) in assay [5] (ATCC38247, read-out: MIC); 1.56 µg/mL (≈ 6.11 µM) in assay [6] (ATCC10231, read-out: MIC); 3.12 µg/mL (≈ 12.2 µM) in the assay on Candida albicans 579A (read-out: MIC); 12.5 µg/mL (≈ 48.9 µM) in [7] (setting [10]).
